Patent US6995148B2, “Adenosine cyclic ketals: novel adenosine analogues for pharmacotherapy” (University of Pittsburgh, priority 2001, dated 2006)

What was measured:
A2A receptors = conditions: cited from earlier work
[1] = system: patients with acute anterior myocardial infarction; conditions: three-hour intravenous infusion; cited from earlier work
anesthetized rat = experiment: Hemodynamic effects (MABP and heart rate) of intravenous bolus in anesthetized rat; format: in vivo; conditions: bolus injection of 0.2 mg/kg
Method: Preliminary experiments were conducted to evaluate the hemodynamic effects of nonamethonium ACK. Adult male Sprague-Dawley rats utilized in these studies were purchased from Charles River Laboratories (Wilmington, Mass.) and maintained in the University of Pittsburgh Animal Facility. Rats were provided free access to Prolab Isopro RMH 3000 rodent diet (PMI Nutritional Intl., Richmond, Ind.) a nd tap water. The rats weighed approximately 300 grams at the time of study.
Rats were anesthetized with Inactin (100 mg/kg, intraperitoneally or i.p.) and placed on a Deltaphase Isothermal Pad (Braintree Scientific, Inc.; Braintree, Mass.). Body temperature was monitored with a digital rectal probe thermometer (Physioltemp Instruments, Inc.; Clifton, N.J.) and maintained at 37° C. by adjusting a heat lamp above the animal. The trachea was cannulated with polyethylene (PE)- 240 to maintain airway patency, a PE-50 catheter was inserted into the left jugular vein and an intravenous infusion of 0.9% saline was initiated at 80 μl/min. A left carotid artery catheter (PE-50) was inserted and was connected to a digital blood pressure analyzer (Micro-Med; Louisville, Ky.) for continuous measurement of mean arterial blood pressure (MABP) and heart rate. The digital blood pressure analyzer was set to time-average MABP and heart rate at one-minute (slow speed) or two-second (high speed) intervals.
After a 30 minute post-operation rest period, the rats received bolus injections of either adenosine or nonamethonium ACK. Some rats were pretreated with a bolus of 1,3-dipropyl-p-sulfophenylxanthine (DPSPX, a well-characterized adenosine receptor antagonist) followed by a constant rate infusion of DPSPX at 0.15 mg/80 μl/min. It has previously been shown that this dosing regimen with DPSPX effectively blocks adenosine receptors in the rat in vivo.

SMILES	affinity for A2A receptors (A2A receptors)	reduction of infarct size [1]	time to recovery of MABP (anesthetized rat)	time to recovery of heart rate (anesthetized rat)	reduction of MABP (anesthetized rat; FIG. 2A)	reduction of heart rate (anesthetized rat; FIG. 2B)
CCNC(=O)[C@H]1O[C@@H](n2cnc3c(N)nc(NCCc4ccc(CCC(=O)O)cc4)nc32)[C@H](O)[C@@H]1O [CGS 21680, 2-[4-[(2-carboxyethyl)phenyl]ethylamino]-5′-N-ethylcarboxamidoadenosine]	high affinity	–	–	–	–	–
Nc1ncnc2c1ncn2[C@@H]1O[C@H](CO)[C@@H](O)[C@H]1O [adenosine]	–	66%	approximately 500 seconds	approximately 100 seconds	76 mm Hg	158 beats per minute
